Measurements taken from PubChem BioAssay (NCI).
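Cultured in 96-well plates, cells were exposed to test compound for 48 hours across five concentrations. The concentration for 50% growth inhibition is given as GI50. TGI: total growth inhibition.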

How the values were obtained:
Assay in all cases: inhibition of tumour cell growth, NCI panel, 48 h
[1] = tested on: 786-0 renal
[2] = tested on: A498 renal
[3] = tested on: A549 NSCLC
[4] = tested on: ACHN renal
[5] = tested on: BT-549 breast
[6] = tested on: CAKI-1 renal
[7] = tested on: CCRF-CEM leukemia
[8] = tested on: COLO 205 colon
[9] = tested on: DU-145 prostate
[10] = tested on: EKVX NSCLC
[11] = tested on: HCC-2998 colon
[12] = tested on: HCT-116 colon
[13] = tested on: HCT-15 colon
[14] = tested on: HL-60(TB) leukemia
[15] = tested on: HOP-62 NSCLC
[16] = tested on: HOP-92 NSCLC
[17] = tested on: HS 578T breast
[18] = tested on: HT29 colon
[19] = tested on: IGROV1 ovarian
[20] = tested on: K-562 leukemia
[21] = tested on: KM12 colon
[22] = tested on: LOX IMVI melanoma
[23] = tested on: M14 melanoma
[24] = tested on: MALME-3M melanoma
[25] = tested on: MCF7 breast
[26] = tested on: MDA-MB-231 breast
[27] = tested on: MDA-MB-435
[28] = tested on: MOLT-4 leukemia
[29] = tested on: NCI-H226 lung
[30] = tested on: NCI-H23 lung
[31] = tested on: NCI-H460 lung
[32] = tested on: NCI-H522 lung
[33] = tested on: NCI/ADR-RES ovarian
[34] = tested on: OVCAR-3 ovarian
[35] = tested on: OVCAR-4 ovarian
[36] = tested on: OVCAR-5 ovarian
[37] = tested on: OVCAR-8 ovarian
[38] = tested on: PC-3 prostate
[39] = tested on: RPMI-8226 leukemia
[40] = tested on: RXF 393 renal
[41] = tested on: SF-268 CNS
[42] = tested on: SF-295 CNS
[43] = tested on: SF-539 CNS
[44] = tested on: SK-MEL-2 melanoma
[45] = tested on: SK-MEL-28 melanoma
[46] = tested on: SK-MEL-5 melanoma
[47] = tested on: SK-OV-3 ovarian
[48] = tested on: SN12C renal
[49] = tested on: SNB-19 CNS
[50] = tested on: SNB-75 CNS
[51] = tested on: SR leukemia
[52] = tested on: SW-620 colon
[53] = tested on: T-47D breast
[54] = tested on: TK-10 renal
[55] = tested on: U251 CNS
[56] = tested on: UACC-257 melanoma
[57] = tested on: UACC-62 melanoma
[58] = tested on: UO-31 renal

## O=C1c2ccccc2-c2c1c1ccccc1c(=O)n2CCCN1CCOCC1
[1]
  GI50: 3.94 µM
  TGI: 18.5 µM
[2]
  GI50: 21.7 µM
  TGI: 71.4 µM
[3]
  GI50: 26.2 µM
  TGI: > 100 µM
[4]
  GI50: 10.7 µM
  TGI: 59.5 µM
[5]
  GI50: 8 µM
  TGI: 25.5 µM
[6]
  GI50: 14 µM
  TGI: 30 µM
[7]
  GI50: > 38.4 µM
  TGI: > 100 µM
[8]
  GI50: > 100 µM
  TGI: > 100 µM
[9]
  GI50: 10.1 µM
  TGI: > 82.6 µM
[10]
  GI50: 22.7 µM
  TGI: 76.4 µM
[11]
  GI50: > 40.1 µM
  TGI: > 100 µM
[12]
  GI50: 13.6 µM
  TGI: 31.8 µM
[13]
  GI50: 21.8 µM
  TGI: > 100 µM
[14]
  GI50: 24.9 µM
  TGI: > 100 µM
[15]
  GI50: 6.22 µM
  TGI: 18.7 µM
[16]
  GI50: 4.81 µM
  TGI: 13 µM
[17]
  GI50: 4.15 µM
  TGI: 14.8 µM
[18]
  GI50: > 100 µM
  TGI: > 100 µM
[19]
  GI50: 8.36 µM
  TGI: > 50.1 µM
[20]
  GI50: > 100 µM
  TGI: > 100 µM
[21]
  GI50: > 100 µM
  TGI: > 100 µM
[22]
  GI50: 8.87 µM
  TGI: 62.1 µM
[23]
  GI50: 99.2 µM
  TGI: > 100 µM
[24]
  GI50: 9.43 µM
  TGI: 45.1 µM
[25]
  GI50: 9.31 µM
  TGI: > 100 µM
[26]
  GI50: 12 µM
  TGI: 34.1 µM
[27]
  GI50: > 100 µM
  TGI: > 100 µM
[28]
  GI50: 8.11 µM
  TGI: > 100 µM
[29]
  GI50: 26.4 µM
  TGI: 84.5 µM
[30]
  GI50: 15.4 µM
  TGI: 41.5 µM
[31]
  GI50: 20 µM
  TGI: > 100 µM
[32]
  GI50: 10.1 µM
  TGI: > 63.3 µM
[33]
  GI50: 18.2 µM
  TGI: > 100 µM
[34]
  GI50: 25 µM
  TGI: > 100 µM
[35]
  GI50: > 100 µM
  TGI: > 100 µM
[36]
  GI50: 35.9 µM
  TGI: > 100 µM
[37]
  GI50: 7.26 µM
  TGI: > 75.2 µM
[38]
  GI50: 26.2 µM
  TGI: > 100 µM
[39]
  GI50: > 44.4 µM
  TGI: > 100 µM
[40]
  GI50: 6.21 µM
  TGI: 24.3 µM
[41]
  GI50: 6.52 µM
  TGI: 26.1 µM
[42]
  GI50: 6.72 µM
  TGI: 20.6 µM
[43]
  GI50: 6.65 µM
  TGI: 19.6 µM
[44]
  GI50: 19.5 µM
  TGI: 50.7 µM
[45]
  GI50: > 100 µM
  TGI: > 100 µM
[46]
  GI50: 12.3 µM
  TGI: > 95 µM
[47]
  GI50: 17.7 µM
  TGI: 45 µM
[48]
  GI50: 21.3 µM
  TGI: > 100 µM
[49]
  GI50: 14.2 µM
  TGI: 39.1 µM
[50]
  GI50: 2.98 µM
  TGI: > 27.7 µM
[51]
  GI50: 12.2 µM
  TGI: > 100 µM
[52]
  GI50: 20.2 µM
  TGI: > 100 µM
[53]
  GI50: 19.6 µM
  TGI: 97.4 µM
[54]
  GI50: 12.1 µM
  TGI: 31.9 µM
[55]
  GI50: 3.67 µM
  TGI: 14.9 µM
[56]
  GI50: > 100 µM
  TGI: > 100 µM
[57]
  GI50: 5.83 µM
  TGI: 21 µM
[58]
  GI50: 17.1 µM
  TGI: > 100 µM

## CC(NNC(=S)N1CCCCCC1)c1ccc2ccccc2n1 (stereo not given)
[1]
  GI50: 3.38 µM
  TGI: 16.8 µM
[2]
  GI50: 4.61 µM
  TGI: 22.1 µM
[3]
  GI50: 1.13 µM
  TGI: 27 µM
[4]
  GI50: 0.66 µM
  TGI: 14.6 µM
[5]
  GI50: 7.45 µM
  TGI: 58.9 µM
[6]
  GI50: 0.456 µM
  TGI: 10.8 µM
[7]
  GI50: 0.765 µM
  TGI: > 100 µM
[8]
  GI50: 0.284 µM
  TGI: 19 µM
[9]
  GI50: 2.22 µM
  TGI: 18.2 µM
[11]
  GI50: 3.35 µM
  TGI: 22.6 µM
[12]
  GI50: 0.688 µM
  TGI: 17.8 µM
[13]
  GI50: 1.06 µM
  TGI: 51.6 µM
[14]
  GI50: 0.363 µM
  TGI: 12.1 µM
[15]
  GI50: 3.93 µM
  TGI: > 100 µM
[16]
  GI50: 0.769 µM
  TGI: 34.3 µM
[17]
  GI50: 14.5 µM
  TGI: > 100 µM
[18]
  GI50: 2.54 µM
  TGI: 31.1 µM
[19]
  GI50: 1.85 µM
  TGI: 51.3 µM
[20]
  GI50: 2.14 µM
  TGI: > 100 µM
[21]
  GI50: 2.57 µM
  TGI: 41.4 µM
[22]
  GI50: 2.56 µM
  TGI: 15.5 µM
[23]
  GI50: 1.85 µM
  TGI: 11.7 µM
[24]
  GI50: 3.15 µM
  TGI: 37.8 µM
[25]
  GI50: 0.338 µM
  TGI: 15.2 µM
[26]
  GI50: 2.03 µM
  TGI: 20.5 µM
[27]
  GI50: 2.25 µM
  TGI: 21.4 µM
[28]
  GI50: 2.18 µM
  TGI: > 55.5 µM
[29]
  GI50: 2.74 µM
  TGI: 23.2 µM
[30]
  GI50: 11.8 µM
  TGI: > 87.1 µM
[31]
  GI50: 1.05 µM
  TGI: > 78.9 µM
[32]
  GI50: 2.69 µM
  TGI: 21.6 µM
[33]
  GI50: 2.29 µM
  TGI: > 100 µM
[34]
  GI50: 0.41 µM
  TGI: 18.8 µM
[35]
  GI50: 0.0701 µM
  TGI: 13.8 µM
[36]
  GI50: 9.5 µM
  TGI: 38.5 µM
[37]
  GI50: 1.06 µM
  TGI: > 58.7 µM
[38]
  GI50: 2.07 µM
  TGI: > 63 µM
[39]
  GI50: 5.36 µM
  TGI: > 100 µM
[40]
  GI50: 4.7 µM
  TGI: 21.2 µM
[41]
  GI50: 1.72 µM
  TGI: 43.7 µM
[42]
  GI50: 0.843 µM
  TGI: 13.2 µM
[43]
  GI50: 1.68 µM
  TGI: 12.6 µM
[44]
  GI50: 13.8 µM
  TGI: 41.5 µM
[45]
  GI50: 5.18 µM
  TGI: 40.4 µM
[46]
  GI50: 1.95 µM
  TGI: 14.8 µM
[47]
  GI50: 6.24 µM
  TGI: 26.9 µM
[48]
  GI50: 1.84 µM
  TGI: > 57.3 µM
[49]
  GI50: 4.16 µM
  TGI: > 100 µM
[50]
  GI50: 12.5 µM
  TGI: 27.5 µM
[51]
  GI50: 0.759 µM
  TGI: > 48.9 µM
[52]
  GI50: 3.23 µM
  TGI: 33.2 µM
[53]
  GI50: 1.91 µM
  TGI: 28.7 µM
[54]
  GI50: 1.21 µM
  TGI: 21 µM
[55]
  GI50: 0.92 µM
  TGI: 20.4 µM
[56]
  GI50: 1.74 µM
  TGI: 17 µM
[57]
  GI50: 1.69 µM
  TGI: 11.5 µM
[58]
  GI50: 0.478 µM
  TGI: 14.1 µM
